Data as given in patent US11566057B2, “Long-acting co-agonists of the glucagon and GLP-1 receptors” (Merck Sharp & Dohme Corp., priority 2017, dated 2023).
Numbered stars: 1 amine (or outer) side, 2 acyl side, 3 side chain; on linkers, the order of the positions; unused ones are H or OH. Square brackets hold non-standard residues; d marks the D form. Side chains are listed from the residue outwards. Peptide text beside a SMILES is read from it. * marks the point of attachment. C20 diacid = O=C(O)CCCCCCCCCCCCCCCCCCC(=O)*; Phe(4-CH2NH2) = NCc1ccc(C[C@H](N)C(=O)O)cc1; C18 diacid = O=C(O)CCCCCCCCCCCCCCCCC(=O)*; αMeW = C[C@](N)(Cc1c[nH]c2ccccc12)C(=O)O; C16 diacid = O=C(O)CCCCCCCCCCCCCCC(=O)*; γGlu = O=C(O)[C@H](CCC(=O)[*:2])N[*:1]; Met(O2) = CS(=O)(=O)CC[C@H](N)C(=O)O; AEEA = NCCOCCOCC(=O)O; Aib = CC(C)(N)C(=O)O

What follows are compounds tested against T1, human GCGR (Homo sapiens, UniProt P47871) (assay: cAMP activity assay at the Glucagon receptor (GCGR)). Details: ratio of GCGR EC50 to GLP1R EC50.
T1 construct: expressed in transfected cells; growth medium holds Blasticidin and Hygromycin
Format: cell-based
Protocol: Activity of the peptides at the Glucagon receptor (GCGR) and GLP-1 receptor (GLP1R) was measured in a cAMP activity assay.
GCG/GLP-1 receptor co-agonist peptides were dissolved in 100% DMSO (dimethyl sulfoxide) and serially diluted to generate 10 point titrations. The peptide solutions were then transferred into 384-well assay plates (150 nL/well). Assay ready frozen cells expressing human GLP1R or human GCGR were suspended in growth media consisting of DMEM medium (GIBCO®), 10% FBS (GIBCO®), 1×NEAA(GIBCO®), 1×P/S (GIBCO®), 10 ug/mL Blasticidin (GIBCO®) and 200 μg/mL Hygromycin (GIBCO®). […] The cell suspensions (15 μL) were then added to the assay plates containing the peptide solutions (30,000 cells/well for human GCGR; 10,000 cells/well for human GLP1R). The cells were incubated for 1 hour at room temperature in the dark. Production of cAMP was determined using HitHunter™ cAMPXS kits (DiscoverX) following manufacturer protocol. The plates were incubated for overnight at room temperature in the dark. Luminescence was measured using an EnVision Multilabel plate reader (Perkin Elmer). Native GLP-1 and Glucagon (Bachem) are used as control peptides. EC50 values were calculated using uses a 4 parameter logistic fit based on the Levenberg-Marquardt algorithm.

T1 sequence (P47871 26-477): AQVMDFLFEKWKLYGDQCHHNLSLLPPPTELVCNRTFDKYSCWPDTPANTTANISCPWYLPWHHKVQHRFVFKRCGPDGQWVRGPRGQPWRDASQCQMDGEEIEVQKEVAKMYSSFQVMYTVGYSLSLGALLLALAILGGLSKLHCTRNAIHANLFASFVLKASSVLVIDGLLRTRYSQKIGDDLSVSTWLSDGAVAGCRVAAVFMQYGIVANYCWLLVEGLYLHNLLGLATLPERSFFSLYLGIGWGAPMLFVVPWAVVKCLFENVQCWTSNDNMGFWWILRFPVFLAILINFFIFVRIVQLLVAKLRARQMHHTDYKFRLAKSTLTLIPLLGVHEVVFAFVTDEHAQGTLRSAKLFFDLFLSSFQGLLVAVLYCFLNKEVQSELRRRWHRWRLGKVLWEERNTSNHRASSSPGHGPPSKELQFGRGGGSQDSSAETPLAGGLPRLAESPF

First: CC(C)C[C@H](NC(=O)[C@H](CC(C)C)NC(=O)[C@H](CCCCN)NC(=O)[C@H](CO)NC(=O)[C@H](Cc1ccc(O)cc1)NC(=O)[C@H](CC(=O)O)NC(=O)[C@H](CO)NC(=O)[C@@H](NC(=O)[C@H](Cc1ccccc1)NC(=O)[C@@H](NC(=O)CNC(=O)[C@H](CCC(N)=O)NC(=O)C(C)(C)NC(=O)[C@@H](N)Cc1c[nH]cn1)[C@@H](C)O)[C@@H](C)O)C(=O)N[C@@H](CC(=O)O)C(=O)N[C@@H](C)C(=O)N[C@@H](CCCNC(=N)N)C(=O)N[C@@H](C)C(=O)N[C@@H](C)C(=O)N[C@@H](CCCCNC(=O)COCCOCCNC(=O)COCCOCCNC(=O)CC[C@H](NC(=O)CCCCCCCCCCCCCCCCC(=O)O)C(=O)O)C(=O)N[C@@H](CC(=O)O)C(=O)N[C@@H](Cc1ccccc1)C(=O)N[C@H](C(=O)N[C@@H](CCC(N)=O)C(=O)N[C@@H](Cc1c[nH]c2ccccc12)C(=O)N[C@@H](CC(C)C)C(=O)N[C@@H](CCS(C)(=O)=O)C(=O)N[C@@H](CC(=O)O)C(=O)N[C@H](C(N)=O)[C@@H](C)O)C(C)C [TP597] (H-H[Aib]QGTFTSDYSKLLDARAAK([AEEA-AEEA-γGlu-C18 diacid])DFVQWL[Met(O2)]DT-NH2; N-terminus assumed)
Second: CC(C)C[C@H](NC(=O)[C@H](Cc1ccc(O)cc1)NC(=O)[C@H](CCCCN)NC(=O)[C@H](CO)NC(=O)[C@H](Cc1ccc(O)cc1)NC(=O)[C@H](CC(=O)O)NC(=O)[C@H](CO)NC(=O)[C@@H](NC(=O)[C@H](Cc1ccccc1)NC(=O)[C@@H](NC(=O)CNC(=O)[C@H](CCC(N)=O)NC(=O)C(C)(C)NC(=O)[C@@H](N)Cc1c[nH]cn1)[C@@H](C)O)[C@@H](C)O)C(=O)N[C@@H](CC(=O)O)C(=O)N[C@@H](C)C(=O)N[C@@H](CCCNC(=N)N)C(=O)N[C@@H](C)C(=O)N[C@@H](C)C(=O)N[C@@H](CCC(N)=O)C(=O)N[C@@H](Cc1ccc(CNC(=O)COCCOCCNC(=O)COCCOCCNC(=O)CC[C@H](NC(=O)CCCCCCCCCCCCCCCCCCC(=O)O)C(=O)O)cc1)C(=O)N[C@@H](Cc1ccccc1)C(=O)N[C@H](C(=O)N[C@@H](CCC(N)=O)C(=O)N[C@@H](Cc1c[nH]c2ccccc12)C(=O)N[C@@H](CC(C)C)C(=O)N[C@@H](CC(C)C)C(=O)N[C@@H](CC(=O)O)C(=O)N[C@H](C(N)=O)[C@@H](C)O)C(C)C [TP585] (H-H[Aib]QGTFTSDYSKYLDARAAQ[Phe(4-CH2NH2)]([AEEA-AEEA-γGlu-C20 diacid])FVQWLLDT-NH2; N-terminus assumed)
The “hGCGR/hGLP1R (hTone)” value of the first is lower: 1.2 for the first, 2.0 for the second.

First: HsQGTFTSDNle(1,2,3-triazole-4-γE-C16)SKYLDARAAQDFVQWLLDT-NH2 (HXQGTFTSDXSKYLDARAAQDFVQWLLDT; D-Ser, Nle-triazole-γE-C16 lipid; C-terminal amide; peptide TP830; (2)..(2) Xaa is D-Serine; (10)..(10) Xaa is Nle(1,2,3-triazole-4-gammaGlu-C16); (29)..(29) Xaa is C-terminal amide)
Second: CC(C)C[C@H](NC(=O)[C@H](Cc1ccc(O)cc1)NC(=O)[C@H](CCCCN)NC(=O)[C@H](CO)NC(=O)[C@H](Cc1ccc(O)cc1)NC(=O)[C@H](CC(=O)O)NC(=O)[C@H](CO)NC(=O)[C@@H](NC(=O)[C@H](Cc1ccccc1)NC(=O)[C@@H](NC(=O)CNC(=O)[C@H](CCC(N)=O)NC(=O)C(C)(C)NC(=O)[C@@H](N)Cc1c[nH]cn1)[C@@H](C)O)[C@@H](C)O)C(=O)N[C@@H](CC(=O)O)C(=O)N[C@@H](C)C(=O)N[C@@H](CCCNC(=N)N)C(=O)N[C@@H](C)C(=O)N[C@@H](C)C(=O)N[C@@H](CCC(N)=O)C(=O)N[C@@H](CC(=O)O)C(=O)N[C@@H](Cc1ccccc1)C(=O)N[C@H](C(=O)N[C@@H](Cc1ccc(CNC(=O)COCCOCCNC(=O)COCCOCCNC(=O)CC[C@H](NC(=O)CCCCCCCCCCCCCCCCC(=O)O)C(=O)O)cc1)C(=O)N[C@@H](Cc1c[nH]c2ccccc12)C(=O)N[C@@H](CC(C)C)C(=O)N[C@@H](CC(C)C)C(=O)N[C@@H](CC(=O)O)C(=O)N[C@H](C(N)=O)[C@@H](C)O)C(C)C [TP583] (H-H[Aib]QGTFTSDYSKYLDARAAQDFV[Phe(4-CH2NH2)]([AEEA-AEEA-γGlu-C18 diacid])WLLDT-NH2; N-terminus assumed)
The “hGCGR/hGLP1R (hTone)” value of the first is lower: 0.64 for the first, 8.6 for the second.

Compared with `CC(C)C[C@H](NC(=O)[C@H](Cc1ccc(O)cc1)NC(=O)[C@H](CCCCN)NC(=O)[C@H](CO)NC(=O)[C@H](Cc1ccc(O)cc1)NC(=O)[C@H](CC(=O)O)NC(=O)[C@H](CO)NC(=O)[C@@H](NC(=O)[C@H](Cc1ccccc1)NC(=O)[C@@H](NC(=O)CNC(=O)[C@H](CCC(N)=O)NC(=O)C(C)(C)NC(=O)[C@@H](N)Cc1c[nH]cn1)[C@@H](C)O)[C@@H](C)O)C(=O)N[C@@H](CC(=O)O)C(=O)N[C@@H](C)C(=O)N[C@@H](CCCNC(=N)N)C(=O)N[C@@H](C)C(=O)N[C@@H](C)C(=O)N[C@@H](CCCCNC(=O)COCCOCCNC(=O)COCCOCCNC(=O)CC[C@H](NC(=O)CCCCCCCCCCCCCCC(=O)O)C(=O)O)C(=O)N[C@@H](CC(=O)O)C(=O)N[C@@H](Cc1ccccc1)C(=O)N[C@H](C(=O)N[C@@H](CCC(N)=O)C(=O)N[C@@](C)(Cc1c[nH]c2ccccc12)C(=O)N[C@@H](CC(C)C)C(=O)N[C@@H](CCS(C)(=O)=O)C(=O)N[C@@H](CC(=O)O)C(=O)N[C@H](C(N)=O)[C@@H](C)O)C(C)C` [TP630] (H-H[Aib]QGTFTSDYSKYLDARAAK([AEEA-AEEA-γGlu-C16 diacid])DFVQ[αMeW]L[Met(O2)]DT-NH2; N-terminus assumed), `CC(C)C[C@H](NC(=O)[C@H](Cc1c[nH]c2ccccc12)NC(=O)[C@H](CCCCNC(=O)COCCOCCNC(=O)COCCOCCNC(=O)CC[C@H](NC(=O)CCCCCCCCCCCCCCCCC(=O)O)C(=O)O)NC(=O)[C@@H](NC(=O)[C@H](Cc1ccccc1)NC(=O)[C@H](CC(=O)O)NC(=O)[C@H](CCC(N)=O)NC(=O)[C@H](C)NC(=O)[C@H](C)NC(=O)[C@H](CCCNC(=N)N)NC(=O)C(C)(C)NC(=O)[C@H](CC(=O)O)NC(=O)[C@H](CC(C)C)NC(=O)[C@H](Cc1ccc(O)cc1)NC(=O)[C@H](CCCCN)NC(=O)[C@H](CO)NC(=O)[C@H](Cc1ccc(O)cc1)NC(=O)[C@H](CC(=O)O)NC(=O)[C@H](CO)NC(=O)[C@@H](NC(=O)[C@H](Cc1ccccc1)NC(=O)[C@@H](NC(=O)CNC(=O)[C@H](CCC(N)=O)NC(=O)C(C)(C)NC(=O)[C@@H](N)Cc1c[nH]cn1)[C@@H](C)O)[C@@H](C)O)C(C)C)C(=O)N[C@@H](CCS(C)(=O)=O)C(=O)N[C@@H](CC(=O)O)C(=O)N[C@H](C(N)=O)[C@@H](C)O` [TP575] (H-H[Aib]QGTFTSDYSKYLD[Aib]RAAQDFVK([AEEA-AEEA-γGlu-C18 diacid])WL[Met(O2)]DT-NH2; N-terminus assumed) is lower in “hGCGR/hGLP1R (hTone)” value: 3.0 for the first, 0.7 for the second.

Compared with `CC(C)C[C@H](NC(=O)[C@H](Cc1ccc(O)cc1)NC(=O)[C@H](CCCCN)NC(=O)[C@H](CO)NC(=O)[C@H](Cc1ccc(O)cc1)NC(=O)[C@H](CC(=O)O)NC(=O)[C@H](CO)NC(=O)[C@@H](NC(=O)[C@H](Cc1ccccc1)NC(=O)[C@@H](NC(=O)CNC(=O)[C@H](CCC(N)=O)NC(=O)C(C)(C)NC(=O)[C@@H](N)Cc1c[nH]cn1)[C@@H](C)O)[C@@H](C)O)C(=O)N[C@@H](CC(=O)O)C(=O)N[C@@H](C)C(=O)N[C@@H](CCCCN)C(=O)N[C@@H](C)C(=O)N[C@@H](C)C(=O)N[C@@H](CCCCNC(=O)COCCOCCNC(=O)COCCOCCNC(=O)CC[C@H](NC(=O)CCCCCCCCCCCCCCCCC(=O)O)C(=O)O)C(=O)N[C@@H](CC(=O)O)C(=O)N[C@@H](Cc1ccccc1)C(=O)N[C@H](C(=O)N[C@@H](CCC(N)=O)C(=O)N[C@@H](Cc1c[nH]c2ccccc12)C(=O)N[C@@H](CC(C)C)C(=O)N[C@@H](CCS(C)(=O)=O)C(=O)N[C@@H](CC(=O)O)C(=O)N[C@H](C(N)=O)[C@@H](C)O)C(C)C` [TP598] (H-H[Aib]QGTFTSDYSKYLDAKAAK([AEEA-AEEA-γGlu-C18 diacid])DFVQWL[Met(O2)]DT-NH2; N-terminus assumed), `CC(C)C[C@H](NC(=O)[C@H](Cc1ccc(O)cc1)NC(=O)[C@H](CCCCN)NC(=O)[C@H](CO)NC(=O)[C@H](Cc1ccc(O)cc1)NC(=O)[C@H](CC(=O)O)NC(=O)[C@H](CO)NC(=O)[C@@H](NC(=O)[C@H](Cc1ccccc1)NC(=O)[C@@H](NC(=O)CNC(=O)[C@H](CCC(N)=O)NC(=O)C(C)(C)NC(=O)[C@@H](N)Cc1c[nH]cn1)[C@@H](C)O)[C@@H](C)O)C(=O)N[C@@H](CC(=O)O)C(=O)N[C@@H](C)C(=O)N[C@@H](CCCNC(=N)N)C(=O)N[C@@H](C)C(=O)N[C@@H](C)C(=O)N[C@@H](CCC(N)=O)C(=O)N[C@@H](CC(=O)O)C(=O)N[C@@H](Cc1ccccc1)C(=O)N[C@H](C(=O)N[C@@H](Cc1ccc(CNC(=O)CC[C@H](NC(=O)CCCCCCCCCCCCCCCCC(=O)O)C(=O)O)cc1)C(=O)N[C@@H](Cc1c[nH]c2ccccc12)C(=O)N[C@@H](CC(C)C)C(=O)N[C@@H](CC(C)C)C(=O)N[C@@H](CC(=O)O)C(=O)N[C@H](C(N)=O)[C@@H](C)O)C(C)C` [TP639] (H-H[Aib]QGTFTSDYSKYLDARAAQDFV[Phe(4-CH2NH2)]([γGlu-C18 diacid])WLLDT-NH2; N-terminus assumed) is lower in “hGCGR/hGLP1R (hTone)” value: 2.3 for the first, 1.6 for the second.
